Consider 3 compounds from patent US9056923B2, “Mimetic peptides derived from collagen type IV and their use for treating angiogenesis- and lymphagiogenesis-dependent diseases” (THE JOHNS HOPKINS UNIVERSITY, priority 2010, dated 2015).

Read-outs that look alike come from different tables or passages of the source. Ends that are not written are not given here.

In test [1] the test system is HUVEC. In kind it is cell-based, human. The settings on record: for Activity in Proliferation: Yes/No summary. An outline of the steps:
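HUVEC plated at 2000 cells/well overnight, then exposed to peptides in fully supplemented medium for three days. WST-1 added in serum-free EBM-2 for four hours and absorbance read at 450 nm. Percent live cells taken relative to untreated cells in complete medium with 0.2% DMSO.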

The subject of test [2] is HUVEC. Nature of the test: HUVEC migration assay (RT-CIM). The format is cell-based, human. The conditions noted are these: Yes/No summary, active = inhibitory potential greater than 30%. An outline of the steps: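 Real-time impedance (RT-CIM) transwell migration through fibronectin-coated (20 μg/mL) 8 μm membranes; 45,000 cells/well in serum-free medium ± peptides, fully supplemented EBM-2 as chemoattractant below. Cell index recorded over 20 h at 37 °C; ≥2 independent replicates, each in duplicate.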

Test [3] has as its system HUVEC. The format is cell-based, human. The settings on record: for IC50: 3 h; for Activity in Adhesion: HUVEC, Yes/No summary, active = inhibitory potential greater than 30%. An outline of the steps:
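Adhesion of 25,000 cells per well, with or without peptide, followed by real-time electrical impedance on electrode plates over 3 hours. At least two independent replicates, each run in duplicate.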

The subject of test [4] is HUVEC. In words: HUVEC tube formation assay on Matrigel. The format is cell-based, human. The settings on record: Yes/No summary. The procedure, abridged: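 HUVEC (15,000/well) plated on polymerized Matrigel in complete media with or without peptide for 19 h at 37 °C. Tube networks imaged by microscopy, one random field per well, in triplicate wells across at least two independent experiments.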

Test [5] deals with choroidal neovascularization. Nature of the test: Laser-induced choroidal neovascularization model. The settings on record: 0.1 μg into a mouse eye. The format is in vivo, C57BL/6 mice. The method, then:
The ocular laser-induced choroidal neovascularization (NV) model of wet age-related macular degeneration was used for testing. 5-6-week-old female pathogen-free C57BL/6 mice were anesthetized with ketamine hydrochloride (100 mg/kg body weight) and pupils were dilated. Laser photocoagulation (75-μm spot size, 0.1-sec duration, 120 mW) was performed in the 9, 12, and 3 o'clock positions of the posterior pole of each eye with the slit lamp delivery system of an OcuLight GL diode laser (Iridex, Mountain View, Calif.) and a handheld cover slip as a contact lens to view the retina. Production of a tissue bubble by the laser, which indicates rupture of Bruch's membrane, is an important factor in obtaining choroidal NV; therefore, only burns in which a bubble is produced are included in the study. […] At day 7 the mice that received the naked peptides were dosed again whereas the mice that received the particles were administered PBS. Intravitreous injections were done under a dissecting microscope with a Harvard Pump Microinjection System and pulled glass micropipettes. After 14 days, the mice were perfused with 1 mL of PBS containing 50 mg/mL of fluorescein-labeled dextran (2×10^6 Daltons average molecular weight; Sigma-Aldrich, St. Louis, Mo.) and choroidal flat mounts were examined by fluorescence microscopy. Images were captured with a Nikon Digital Still Camera DXM1200 (Nikon Instruments Inc., New York, N.Y.). Image analysis software (Image-Pro Plus; Media Cybernetics, Silver Spring, Md.) was used to measure the total area of choroidal NV at each rupture site with the investigator masked with respect to treatment group.

Test [6] deals with VEGF mediated retinal neovascularization. In words: Rho/VEGF transgenic mice model of retinal neovascularization. In kind it is in vivo. The settings on record: for area of retinal neovascularization in the Rho/VEGF model: 0.1 μg into a mouse eye. As for the experimental part: The ocular Rho/VEGF transgenic mice model of wet age-related macular degeneration also was used to test some of the peptides. Transgenic mice in which the rhodopsin promoter drives expression of VEGF in photoreceptors have the onset of VEGF production at P7 and develop extensive NV along the outer surface of the retina by P21 (Okamoto et al., 1997; To be et al., 1998). Mice hemizygous for the transgene (n=15 for each dose) were given an intraocular injection of 1 μl of PBS containing 0.01, 0.1, or 1 μg of peptide or scramble peptide in one eye at P7 and P14 and at P21 the mice were anesthetized, perfused with fluorescein-labeled dextran, and the total area of neovascularization on the outer surface of the retina was measured on retinal flat mounts by image analysis as above.

On to `CC[C@H](C)[C@H](NC(=O)[C@H](CC(N)=O)NC(=O)[C@@H](NC(=O)[C@H](Cc1ccccc1)NC(=O)[C@@H](C)NC(=O)[C@H](Cc1ccccc1)NC(=O)[C@@H]1CCCN1C(=O)[C@H](CCSC)NC(=O)[C@@H](NC(=O)[C@H](CO)NC(=O)[C@H](Cc1ccccc1)NC(=O)[C@H](CCCNC(=N)N)NC(=O)[C@H](CCCNC(=N)N)NC(=O)[C@@H](N)CC(C)C)[C@@H](C)O)[C@@H](C)CC)C(=O)N[C@@H](CC(N)=O)C(=O)N[C@@H](CC(N)=O)C(=O)N[C@H](C(=O)N[C@H](C(=O)N[C@@H](CC(N)=O)C(=O)N[C@@H](Cc1ccccc1)C(N)=O)[C@@H](C)CC)C(C)C` [SP2034, LRRFSTMPFdAFININNVINF], for which, in the test on HUVEC [1] (HUVEC), the “inhibition of proliferation” value was “improved by two orders of magnitude” and the “Activity in Proliferation” value is listed as “Yes”. Moreover, in the test with HUVEC [1] (HUVEC, tables 5, 8-10 and text, read-out: IC50 ± 95% CI (μM), proliferation), the IC50 came to 0.54 ± 0.19 µM. In the test with HUVEC [2], the “Activity in Migration” value was “Yes”. In the test with HUVEC [3], the IC50 came out at 550 ± 370 nM and the “Activity in Adhesion” value was “Yes”. In addition, the “Activity in Tube formation” value with HUVEC [4] is listed as “Yes”. Further, in test [5], the laser-induced choroidal neovascularization result is “inhibited laser-induced choroidal neovascularization”. Also, the “area of retinal neovascularization in the Rho/VEGF model” value (from here on “area … in the Rho/VEGF model”) in test [6] is given as “inhibited”.

With `CC[C@H](C)[C@H](NC(=O)[C@H](CC(N)=O)NC(=O)[C@@H](NC(=O)[C@H](Cc1ccccc1)NC(=O)[C@H](C)NC(=O)[C@H](Cc1ccccc1)NC(=O)[C@@H]1CCCN1C(=O)[C@H](CCSC)NC(=O)[C@@H](NC(=O)[C@H](CO)NC(=O)[C@H](Cc1ccccc1)NC(=O)[C@H](CCCNC(=N)N)NC(=O)[C@H](CCCNC(=N)N)NC(=O)[C@@H](N)CC(C)C)[C@@H](C)O)[C@@H](C)CC)C(=O)N[C@@H](CC(N)=O)C(=O)N[C@@H](CC(N)=O)C(=O)N[C@H](C(=O)N[C@H](C(=O)N[C@@H](CC(N)=O)C(=O)N[C@@H](Cc1ccccc1)C(N)=O)[C@@H](C)CC)C(C)C` [SP2035], the “Activity in Proliferation” value in the test on HUVEC [1] (HUVEC) was “Yes”. In addition, the “Activity in Migration” value in the test on HUVEC [2] was “Yes”. For the same compound, in the test on HUVEC [3], the IC50 amounted to 2510 ± 880 nM and the “Activity in Adhesion” value was “Yes”. For the same compound, the “Activity in Tube formation” value with HUVEC [4] was “Yes”. In addition, the laser-induced choroidal neovascularization entry in test [5] is recorded as “inhibited laser-induced choroidal neovascularization”. The “area … in the Rho/VEGF model” value in test [6] is “inhibited”.

Compound LRRFSTAPFAFININNVINF-NH2 [SP2036] gave an IC50 in the test with HUVEC [1] of 9.97 ± 8.3 µM. For the same compound, in the test on HUVEC [1] (HUVEC), the “loss of activity in proliferation compared to substitution of Methionine at position 10” value turned out to be 10 fold and the “Activity in Proliferation” value is recorded as “Yes”. For the same compound, the “Activity in Migration” value with HUVEC [2] is recorded as “Yes”. In the test with HUVEC [3], the IC50 was 2750 ± 1220 nM and the “Activity in Adhesion” value is “Yes”. Besides, the “Activity in Tube formation” value in the test on HUVEC [4] was “Yes”. Besides, the laser-induced choroidal neovascularization result in test [5] is on record as “inhibited laser-induced choroidal neovascularization”. The “inhibition of VEGF mediated angiogenesis” value in test [6] (0.1 μg administered directly into the eye) is “about 70%”. For the same compound, the “area … in the Rho/VEGF model” value in test [6] is recorded as “inhibited”.
